The subject of one assay is BPH cells. In words: In situ end labeling (ISEL) of apoptotic BPH cells. The class given is cell-based, human. As for the experimental part: Human BPH cells, prepared, maintained and used as previously described in Crescioli C, et al. Journal of Clinical and Endocrinology Metabolism (2000) 85 p 2576-2583, were obtained from prostate tissues derived from 5 patients, who underwent suprapubic adenomectomy for BPH, after informed consent and approval by the Local Ethical Committee.
ISEL was performed onto BPH cells using Apop Tag in situ apoptosis detection kit peroxydase following the manufacturer's instruction. Cells were incubated with T (10 nM), KGF (10 ng/ml) or Des(1-3)IGF-I (10 ng/ml) with or without Compound A (10 nM). The percentage of apoptotic cells (the number of stained cells divided by the total number of cells) was calculated in at least five separate fields per slide in five different slides. Results are expressed as mean±SEM from three separate experiments.

A further assay has as its target T1, 5α reductase type 1 (Homo sapiens, UniProt P18405).
T1 construct: host or cells: CHO 1827
T1 sequence (P18405 1-259): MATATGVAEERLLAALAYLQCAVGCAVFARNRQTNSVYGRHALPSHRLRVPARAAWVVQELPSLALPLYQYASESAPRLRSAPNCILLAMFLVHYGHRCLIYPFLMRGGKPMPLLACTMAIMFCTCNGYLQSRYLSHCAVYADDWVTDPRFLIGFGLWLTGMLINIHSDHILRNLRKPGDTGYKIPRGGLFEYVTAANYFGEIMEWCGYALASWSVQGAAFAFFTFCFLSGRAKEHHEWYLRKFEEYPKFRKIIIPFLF
In words: 5α reductase inhibition test in CHO 1827 cells. The format is cell-based. The settings on record: 10^−9 to 10^−5 M. As for the experimental part: (§1) CHO-1827 and CHO-1829 cells, transfected with 5α reductase type 1 (5αR-1) or type 2 (5αR-2), respectively (see Steers W. Urology (2001) 58 p 17-24), were maintained in Ham's F12 medium supplemented with 5% FCS.
(§2) 5α reductase inhibition assay was performed using CHO 1827 cells, transfected with 5αR-1, or CHO 1829 cells, transfected with 5αR-2, as described (see Guarna A, et al. Journal of Medicinal Chemistry (2000) 43 3718-3735.). Compound A was added in a concentration range from 10^−9 to 10^−5 M, using finasteride as a control inhibitor in each experiment.

In another assay the target is T2, 5α reductase type 2 (Homo sapiens, UniProt P31213).
T2 construct: host or cells: CHO 1829
T2 sequence (P31213 1-254): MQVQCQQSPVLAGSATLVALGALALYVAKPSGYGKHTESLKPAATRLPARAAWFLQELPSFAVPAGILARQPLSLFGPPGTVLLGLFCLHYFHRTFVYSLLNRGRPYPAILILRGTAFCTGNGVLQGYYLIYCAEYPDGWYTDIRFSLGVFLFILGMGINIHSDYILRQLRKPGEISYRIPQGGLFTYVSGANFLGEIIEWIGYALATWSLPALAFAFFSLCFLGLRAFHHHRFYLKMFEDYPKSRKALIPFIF
The experiment in a line: 5α reductase inhibition test in CHO 1829 cells. The class given is cell-based. The settings on record: 10^−9 to 10^−5 M. The protocol: as §1, §2

In assay [1] the test system is rat ventral prostate. The experiment in a line: Ventral prostate growth in castrated, T enanthate-supplemented rats. The format is in vivo. To be noted: castrated rats + T enanthate 30 mg/Kg/week; oral, 9 administrations; Compound A 10-300 μg/Kg, finasteride 10, 40 mg/Kg. The protocol:
Male Sprague Dawley rats (28 days old) were purchased from Charles River Laboratories (Calco, Lecco, Italy). All animal experimentation described was conducted in accord with accepted standards of animal care. Castration was performed via the scrotal route under ketamine/xylazine anaesthesia.

Assay [2] has as its system rat ventral prostate. In words: Ventral prostate growth in intact adult rats.
Excerpt: Rat ventral prostate glands were rapidly excised out, weighed and quickly frozen in dry ice.
Another assay addresses T3, AR (Homo sapiens, UniProt P10275).
T3 sequence (P10275 1-920): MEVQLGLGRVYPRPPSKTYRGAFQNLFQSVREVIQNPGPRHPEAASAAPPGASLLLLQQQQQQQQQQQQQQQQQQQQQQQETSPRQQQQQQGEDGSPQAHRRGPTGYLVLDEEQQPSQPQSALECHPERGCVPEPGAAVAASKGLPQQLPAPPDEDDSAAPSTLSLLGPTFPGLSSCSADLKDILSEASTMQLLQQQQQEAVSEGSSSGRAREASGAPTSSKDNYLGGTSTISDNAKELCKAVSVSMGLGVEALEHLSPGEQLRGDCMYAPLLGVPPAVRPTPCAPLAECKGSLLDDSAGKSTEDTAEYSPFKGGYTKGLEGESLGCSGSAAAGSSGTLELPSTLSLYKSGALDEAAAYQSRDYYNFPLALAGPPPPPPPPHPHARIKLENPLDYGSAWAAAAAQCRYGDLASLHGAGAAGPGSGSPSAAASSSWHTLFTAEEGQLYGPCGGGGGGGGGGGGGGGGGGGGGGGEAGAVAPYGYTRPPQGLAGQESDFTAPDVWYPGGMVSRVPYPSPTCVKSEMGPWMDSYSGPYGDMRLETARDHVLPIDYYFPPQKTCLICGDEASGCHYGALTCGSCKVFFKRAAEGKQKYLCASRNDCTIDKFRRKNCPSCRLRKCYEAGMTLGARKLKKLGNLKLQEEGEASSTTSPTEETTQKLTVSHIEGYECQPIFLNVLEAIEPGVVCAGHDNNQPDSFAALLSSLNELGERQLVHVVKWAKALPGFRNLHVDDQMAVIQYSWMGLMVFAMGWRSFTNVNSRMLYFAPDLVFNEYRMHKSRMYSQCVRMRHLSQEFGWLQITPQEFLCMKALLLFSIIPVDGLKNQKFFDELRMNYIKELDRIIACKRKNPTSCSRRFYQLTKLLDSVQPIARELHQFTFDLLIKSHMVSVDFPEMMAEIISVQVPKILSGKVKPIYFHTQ
The experiment in a line: Luciferase assay in AR-transfected PC3 cells. The class given is cell-based. The arrangement: In PC3 cells expressing the full length AR coupled to a luciferase report gene; expressed in transfected cells; host or cells: PC3 (AR-deficient human prostate adenocarcinoma), stably transfected with p5HbhAR-A. To be noted: increasing concentrations, alone or with DHT 3 nM.

Each structure is given as a SMILES string. Marks after values point to notes of the source that are not given here.

Description for AR: PC3 cells stably transfected with human AR were plated in 24-well plates at a density of 2×10^4 in Ham's F12 plus 10% FCS. […] Transfected cells incubated with ethanol only served as positive controls.
The Luciferase assay was performed with a Berthold luminometer according to the manufacturer's instructions (Luciferase Assay System, Promega, Milan, Italy). The cells were lysed directly in the plate with 200 μl of lysis buffer. Luciferase activity was measured on 20 μl of cell lysate for 10 s after addition of 100 μl of luciferine. Total protein measurement was performed on 20 μl of cell lysate. At least three independent assays were done in duplicate.

For `C=C1/C(=C\C=C2/CCC[C@]3(C)C([C@@H](C)C/C=C/C(O)(CC)CC)=CC[C@@H]23)C[C@@H](O)C[C@@H]1F` [Compound A, 1-alpha-fluoro-25-hydroxy-16,23E-diene-26,27-bishomo-20-epi-cholecalciferol], in the assay on BPH cells (48 h, Compound A 10 nM, T 10 nM, GFs 10 ng/ml), the “change in percentage of apoptotic nuclei vs untreated cells” value was 270%. Also, the “Apoptotic index (%)” value is given as 68.44 ± 1.26^a % with BPH cells (Compound A 10 nM alone, ISEL); 45.85 ± 0.66^a,b,c % in the assay on BPH cells (Compound A 10 nM with Des(1-3)IGF-I 10 ng/ml); 44.46 ± 0.57^a,b,c % in the assay on BPH cells (Compound A 10 nM with KGF 10 ng/ml); 49.06 ± 1.87^a,b,c % in the assay on BPH cells (Compound A 10 nM with T 10 nM). The “increase in number of ISEL-positive BPH cells in the presence of GFs or T” value in the assay with BPH cells (Compound A 10 nM with GFs or T) is “more than 250%”. Further, at 5α reductase type 1, the “interference with 5α reductase type 1” value is recorded as “did not interfere with either isoenzyme up to the micromolar range”. Besides, the “interference with 5α reductase type 2” value at 5α reductase type 2 is “did not interfere with either isoenzyme up to the micromolar range”. The “effect on T-stimulated prostate over-growth (ventral prostate weight)” value in the assay with rat ventral prostate [1] is on record as “completely blunted”. In addition, the “maximal reduction of ventral prostate weight” value in the assay with rat ventral prostate [2] (one month oral, 300 μg/Kg) was 30%. In addition, the “effect on ventral prostate weight” value in the assay with rat ventral prostate [2] (one-month oral treatment, 10-300 μg/Kg) is given as “significantly decreased”. The “effect on AR-mediated luciferase activity (agonist/antagonist)” value on AR is given as “neither stimulated nor inhibited”.

For the origin of these results see patent publication US7332482B2, “Method for treating benign prostatic hyperplasia” (BioXell S.p.A., priority 2003, dated 2008).
